The record followed here is patent publication US10023534B2 (BRISTOL-MYERS SQUIBB COMPANY, priority 2014, dated 2018).

For one assay, the target named is human recombinant Btk (Homo sapiens (Human), UniProt Q06187). The assay can be described thus: Human Recombinant Btk Enzyme Assay. The format is biochemical. The conditions noted are these: for Potency Difference Btk: ratio of IC50 value for the Comparative Example to that for the corresponding Example: Comparative Example (stereoisomer) IC50 / Example IC50. The procedure: Human Recombinant Btk Enzyme Assay
human recombinant Btk, sequence (Q06187 whole entry): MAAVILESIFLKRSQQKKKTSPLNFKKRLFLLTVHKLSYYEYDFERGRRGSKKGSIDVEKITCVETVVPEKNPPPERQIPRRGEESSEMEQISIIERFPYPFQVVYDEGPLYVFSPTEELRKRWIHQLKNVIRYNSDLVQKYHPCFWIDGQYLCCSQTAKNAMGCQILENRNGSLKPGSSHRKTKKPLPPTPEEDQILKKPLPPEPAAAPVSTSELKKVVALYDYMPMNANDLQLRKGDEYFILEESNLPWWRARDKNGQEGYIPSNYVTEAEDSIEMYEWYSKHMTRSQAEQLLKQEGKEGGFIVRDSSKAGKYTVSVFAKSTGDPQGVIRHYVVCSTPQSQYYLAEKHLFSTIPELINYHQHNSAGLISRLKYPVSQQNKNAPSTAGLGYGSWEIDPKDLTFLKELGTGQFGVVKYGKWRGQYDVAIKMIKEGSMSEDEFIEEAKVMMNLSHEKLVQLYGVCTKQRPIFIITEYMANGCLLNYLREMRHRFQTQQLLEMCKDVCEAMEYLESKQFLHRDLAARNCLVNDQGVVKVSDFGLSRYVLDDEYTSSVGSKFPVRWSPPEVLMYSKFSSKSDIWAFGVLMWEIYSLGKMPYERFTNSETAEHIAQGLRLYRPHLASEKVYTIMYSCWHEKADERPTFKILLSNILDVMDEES
To V-bottom 384-well plates were added test compounds, human recombinant Btk (1 nM, Invitrogen Corporation), fluoresceinated peptide (1.5 μM), ATP (20 μM), and assay buffer (20 mM HEPES pH 7.4, 10 mM MgCl2, 0.015% Brij 35 surfactant and 4 mM DTT in 1.6% DMSO), with a final volume of 30 μL. After incubating at room temperature for 60 min, the reaction was terminated by adding 45 μL of 35 mM EDTA to each sample. The reaction mixture was analyzed on the Caliper LABCHIP® 3000 (Caliper, Hopkinton, Mass.) by electrophoretic separation of the fluorescent substrate and phosphorylated product. […] Compounds were dissolved at 10 mM in DMSO and evaluated at eleven concentrations.

A further assay deals with Ramos RA1 B cells. The assay can be described thus: Ramos FLIPR Assay (intracellular calcium flux, anti-human IgM stimulated). The format is cell-based. The conditions noted are these: for Potency Difference Ramos: ratio of IC50 value for the Comparative Example to that for the corresponding Example: Comparative Example (stereoisomer) IC50 / Example IC50. The procedure:
Ramos FLIPR Assay […] Dye-loaded cells were pelleted (Beckmann GS-CKR, 1200 rpm, room temperature, 5 min) and resuspended at room temperature in RPMI minus phenol red with 50 mM HEPES and 10% FBS to a density of 1×10^6 cells/mL. 150 μL aliquots (150,000 cells/well) were plated into 96 well poly-D-lysine coated assay plates (BD 35 4640) and briefly centrifuged (Beckmann GS-CKR 800 rpm, 5 min, without brake). Next, 50 μL compound dilutions in 0.4% DMSO/RPMI minus phenol red+50 mM HEPES+10% FBS were added to the wells and the plate was incubated at room temperature in the dark for 1 hour. The assay plate was briefly centrifuged as above prior to measuring calcium levels. Using the […] (Molecular Devices), cells were stimulated by adding goat anti-human IgM (Invitrogen AHI0601) to 2.5 μg/mL. Changes in intracellular calcium concentrations were measured for 180 seconds and percent inhibition was determined relative to peak calcium levels seen in the presence of stimulation only. The Ramos assay measures the ability of a compound to move through the cell membrane into the cell interior. A lower IC50 value indicates a greater ability to move into the cell interior.
(Calcium assays in cells follow changes in intracellular calcium, usually with a dye or a luminescent sensor.)

The mark [1] stands for this setting: Table 3, ATP 20 μM, 60 min room temperature, read-out: Btk IC50 value.
[2] abbreviates: Homo sapiens, Ramos, Table 3, calcium flux, goat anti-human IgM 2.5 μg/mL, read-out: Ramos IC50 value.
[3] abbreviates: Table 4, read-out: Example Btk IC50.
Setting [4] is: Homo sapiens, Ramos, Table 4, read-out: Example Ramos IC50.
Where [5] appears, read: Ramos, Table 3, calcium flux, goat anti-human IgM 2.5 μg/mL, read-out: Ramos IC50 value.
Setting [6] is: Table 4, Comparative Example, read-out: Comparative Example Btk IC50.
The mark [7] stands for this setting: Homo sapiens, Ramos, Table 4, Comparative Example, read-out: Comparative Example Ramos IC50.

Read-outs that look alike come from different tables or passages of the source.

With `C=CC(=O)N1CCc2c(cccc2-c2c(Cl)cc(C(N)=O)c3[nH]c4c(c23)CCCC4)C1` (racemic) [Example 32, 5-(2-acryloyl-1,2,3,4-tetrahydroisoquinolin-5-yl)-6-chloro-2,3,4,9-tetrahydro-1H-carbazole-8-carboxamide], the IC50 (in general, the concentration that inhibits the measured activity by half) on human recombinant Btk (setting [1]) was determined as 0.6 nM; with Ramos RA1 B cells (setting [2]), 46 nM.

For the molecule `C=CC(=O)N1CCc2c(cccc2-c2c(F)cc(C(N)=O)c3[nH]c4ccccc4c23)C1` (single isomer, unassigned) [Example 5, 4-(2-Acryloyl-1,2,3,4-tetrahydroisoquinolin-5-yl)-3-fluoro-9H-carbazole-1-carboxamide], the “Potency Difference Btk: ratio of IC50 value for the Comparative Example to that for the corresponding Example” value (from here on “Potency Difference Btk: ratio”) at human recombinant Btk is on record as 60. Further, the IC50 came out at 0.067 nM at human recombinant Btk (setting [1]), 0.067 nM at human recombinant Btk (setting [3]), 2.4 nM with Ramos RA1 B cells (setting [4]) and 2.4 nM in the assay with Ramos RA1 B cells (setting [5]). For the same molecule, the “Potency Difference Ramos: ratio of IC50 value for the Comparative Example to that for the corresponding Example” value (“Potency Difference Ramos: ratio” for short) in the assay on Ramos RA1 B cells is listed as 30.

Take `C=CC(=O)N1CCc2c(cccc2-c2c(F)cc(C(N)=O)c3[nH]c4c(c23)CC[C@H](C(C)(C)O)C4)C1` (single isomer, unassigned) [Example 9]: the IC50 in the assay on Ramos RA1 B cells (setting [2]) and in the assay with Ramos RA1 B cells (setting [4]) was 2.3 nM throughout.

Regarding `C=CC(=O)N1CCc2c(cccc2-c2c(F)cc(C(N)=O)c3[nH]c4c(c23)CC(F)(F)CC4)C1` (single isomer, unassigned) [Comparative Example 16, 5-(2-Acryloyl-1,2,3,4-tetrahydroisoquinolin-5-yl)-3,3,6-trifluoro-2,3,4,9-tetrahydro-1H-carbazole-8-carboxamide], the IC50 on human recombinant Btk (setting [6]) is 4.5 nM; with Ramos RA1 B cells (setting [7]), more than 300 nM.

Take `C=CC(=O)N1CCc2c(cccc2-c2c(Cl)cc(C(N)=O)c3[nH]c4c(c23)CNCC4)C1` (racemic) [Example 33, 9-(2-acryloyl-1,2,3,4-tetrahydroisoquinolin-5-yl)-8-chloro-2,3,4,5-tetrahydro-1H-pyrido[4,3-b]indole-6-carboxamide]: the IC50 on human recombinant Btk (setting [1]) amounted to 2.3 nM.

As for `C=CC(=O)N1CCc2c(cccc2-c2c(Cl)cc(C(N)=O)c3[nH]c4ccccc4c23)C1` (single isomer, unassigned) [Example 24], the IC50 in the assay on Ramos RA1 B cells (setting [2]) came out at 3 nM.

Take `C=CC(=O)N1CCc2c(cccc2-c2c(F)cc(C(N)=O)c3[nH]c4c(c23)CC(F)(F)CC4)C1` (single isomer, unassigned) [Example 6, 5-(2-Acryloyl-1,2,3,4-tetrahydroisoquinolin-5-yl)-3,3,6-trifluoro-2,3,4,9-tetrahydro-1H-carbazole-8-carboxamide]: the “Potency Difference Btk: ratio” value at human recombinant Btk is 38. Further, the IC50 at human recombinant Btk (setting [1]) stood at 0.12 nM; at human recombinant Btk (setting [3]), 0.12 nM; in the assay on Ramos RA1 B cells (setting [4]), 23 nM; with Ramos RA1 B cells (setting [5]) it was 23 nM. Also, the “Potency Difference Ramos: ratio” value in the assay with Ramos RA1 B cells was more than 13.

For the molecule `C=CC(=O)N1CCc2c(cccc2-c2c(F)cc(C(N)=O)c3[nH]c4cc(C(=O)N(C)C)ccc4c23)C1` (racemic) [Example 28, 4-(2-acryloyl-1,2,3,4-tetrahydroisoquinolin-5-yl)-3-fluoro-N7,N7-dimethyl-9H-carbazole-1,7-dicarboxamide], the concentration for half-maximal inhibition (IC50) was 0.17 nM on human recombinant Btk (setting [1]) and 17 nM with Ramos RA1 B cells (setting [5]).

With `C=CC(=O)N1CCSc2c(-c3c(F)cc(C(N)=O)c4[nH]c5ccccc5c34)cccc21` (single isomer, unassigned) [Example 14, 4-(4-acryloyl-3,4-dihydro-2H-benzo[b][1,4]thiazin-8-yl)-3-fluoro-9H-carbazole-1-carboxamide], on human recombinant Btk, the “Potency Difference Btk: ratio” value worked out at 60. In addition, the IC50 at human recombinant Btk (setting [1]) stood at 0.073 nM; on human recombinant Btk (setting [3]), 0.073 nM; in the assay with Ramos RA1 B cells (setting [4]), 7.8 nM; in the assay with Ramos RA1 B cells (setting [5]), 7.8 nM. The “Potency Difference Ramos: ratio” value in the assay on Ramos RA1 B cells was determined as 19.

Turning to `C=CC(=O)N1CCSc2c(-c3c(F)cc(C(N)=O)c4[nH]c5ccccc5c34)cccc21` (racemic) [Example 13, (RS)-4-(4-acryloyl-3,4-dihydro-2H-benzo[b][1,4]thiazin-8-yl)-3-fluoro-9H-carbazole-1-carboxamide], the IC50 was found to be 0.13 nM at human recombinant Btk (setting [1]) and 9.2 nM in the assay with Ramos RA1 B cells (setting [5]).

In the case of `C=CC(=O)N1CCc2c(cccc2-c2c(Cl)cc(C(N)=O)c3[nH]c4ccccc4c23)C1` [Example 30], in the assay on Ramos RA1 B cells (setting [2]), the IC50 was determined as 20 nM.

Consider `C=CC(=O)N1CCc2c(cccc2-c2c(F)cc(C(N)=O)c3[nH]c4ccccc4c23)C1` (single isomer, unassigned) [Comparative Example 15, 4-(2-Acryloyl-1,2,3,4-tetrahydroisoquinolin-5-yl)-3-fluoro-9H-carbazole-1-carboxamide], for which the values for the IC50 at human recombinant Btk (setting [6]) and in the assay on Ramos RA1 B cells (setting [7]) were 4 nM and 72 nM, respectively.

Take `C=CC(=O)N1CCCOc2c(-c3c(F)cc(C(N)=O)c4[nH]c5cc(C(F)(F)F)ccc5c34)cccc21` (single isomer, unassigned) [Comparative Example 22, 4-(5-Acryloyl-2,3,4,5-tetrahydrobenzo[b][1,4]oxazepin-9-yl)-3-fluoro-7-(trifluoromethyl)-9H-carbazole-1-carboxamide]: the values for the IC50 at human recombinant Btk (setting [6]) and with Ramos RA1 B cells (setting [7]) were 9.5 nM and 300 nM, respectively.

`N#CN1CCc2c(cccc2-c2c(F)cc(C(N)=O)c3[nH]c4cc(CCO)ccc4c23)C1` (racemic) [Example 27, 4-(2-cyano-1,2,3,4-tetrahydroisoquinolin-5-yl)-3-fluoro-7-(2-hydroxyethyl)-9H-carbazole-1-carboxamide]: the 50% inhibitory concentration (IC50) was found to be 4.8 nM at human recombinant Btk (setting [1]) and 142 nM with Ramos RA1 B cells (setting [5]).

For the molecule `C=CC(=O)N1CCOc2c(-c3c(F)cc(C(N)=O)c4[nH]c5ccccc5c34)cccc21` (single isomer, unassigned) [Example 8, 4-(4-Acryloyl-3,4-dihydro-2H-benzo[b][1,4]oxazin-8-yl)-3-fluoro-9H-carbazole-1-carboxamide], the “Potency Difference Btk: ratio” value at human recombinant Btk is 19. For the same molecule, the IC50 amounted to 0.077 nM at human recombinant Btk (setting [1]), 0.077 nM on human recombinant Btk (setting [3]), 6.9 nM with Ramos RA1 B cells (setting [4]) and 6.9 nM with Ramos RA1 B cells (setting [5]). In the assay with Ramos RA1 B cells, the “Potency Difference Ramos: ratio” value turned out to be 9.4.

For the molecule `C=CC(=O)N1CCc2c(cccc2-c2c(F)cc(C(N)=O)c3[nH]c4c(c23)CCC(C(F)(F)F)C4)C1` (single isomer, unassigned) [Example 11, 5-(2-Acryloyl-1,2,3,4-tetrahydroisoquinolin-5-yl)-6-fluoro-2-(trifluoromethyl)-2,3,4,9-tetrahydro-1H-carbazole-8-carboxamide], the IC50 is 16.3 nM in the assay with Ramos RA1 B cells (Table 3, calcium flux, goat anti-human IgM 2.5 μg/mL, read-out: Ramos IC50 value) and 16 nM in the assay with Ramos RA1 B cells (Table 4, read-out: Example Ramos IC50).

As to `C=CC(=O)N1CCc2c(cccc2-c2c(F)cc(C(N)=O)c3[nH]c4c(c23)CCC(C(F)(F)F)C4)C1` (single isomer, unassigned) [Example 10, 5-(2-Acryloyl-1,2,3,4-tetrahydroisoquinolin-5-yl)-6-fluoro-2-(trifluoromethyl)-2,3,4,9-tetrahydro-1H-carbazole-8-carboxamide], the IC50 turned out to be 22.2 nM in the assay with Ramos RA1 B cells (setting [2]) and 22 nM in the assay on Ramos RA1 B cells (setting [4]).

For the molecule `C=CC(=O)N1CCc2c(cccc2-c2c(F)cc(C(N)=O)c3[nH]c4c(c23)CCC(C(F)(F)F)C4)C1` (single isomer, unassigned) [Comparative Example 20, 5-(2-Acryloyl-1,2,3,4-tetrahydroisoquinolin-5-yl)-6-fluoro-2-(trifluoromethyl)-2,3,4,9-tetrahydro-1H-carbazole-8-carboxamide], in the assay with Ramos RA1 B cells (setting [7]), the IC50 was more than 300 nM.

As for `C=CC(=O)N1CCc2c(cccc2-c2c(F)cc(C(N)=O)c3[nH]c4c(c23)CCC(C(F)(F)F)C4)C1` (single isomer, unassigned) [Comparative Example 21, 5-(2-Acryloyl-1,2,3,4-tetrahydroisoquinolin-5-yl)-6-fluoro-2-(trifluoromethyl)-2,3,4,9-tetrahydro-1H-carbazole-8-carboxamide], in the assay on Ramos RA1 B cells (Table 4, Comparative Example, read-out: Comparative Example Ramos IC50), the concentration for half-maximal inhibition (IC50) is more than 300 nM.

For the molecule `C=CC(=O)N1CCc2c(cccc2-c2c(F)cc(C(N)=O)c3[nH]c4c(c23)CC[C@H](C(C)(C)O)C4)C1` (single isomer, unassigned) [Comparative Example 19], in the assay with Ramos RA1 B cells (setting [7]), the IC50 is more than 300 nM.
